Values after ≈ are worked out from the molar mass of the structure shown.
test system: Botrytis; test: Antifungal activity against Botrytis cinereapers assessed as inhibition rate at 50 ug/mL; format: functional; details: not given

`CO/C=C(/C(=O)OC)c1ccccc1CSc1nc2ccccc2o1` and `CO/C=C(/C(=O)OC)c1ccccc1CSc1nc2ccccc2s1` are the same in inhibition at 50 µg/mL: 47% for the first, 47% for the second.

Compared with `CO/N=C(/C(=O)OC)c1ccccc1CSc1nc2ccccc2s1`, `CO/N=C(/C(=O)OC)c1ccccc1CSc1cc(=O)c2ccccc2s1` is lower in inhibition at 50 µg/mL: 52% for the first, 23% for the second.

Compared with `CO/N=C(/C(=O)OC)c1ccccc1CSc1nnc(CSc2nc3nc(C)cc(C)n3n2)o1`, `CO/C=C(/C(=O)OC)c1ccccc1CSc1nnc(CSc2nc3nc(C)cc(C)n3n2)s1` is lower in inhibition at 50 µg/mL: 77% for the first, 14% for the second.

Compared with `CO/C=C(/C(=O)OC)c1ccccc1CSc1nc2nc(C)cc(C)n2n1`, `CO/C=C(/C(=O)OC)c1ccccc1CSc1nc(C)cc(C)n1` is higher in inhibition at 50 µg/mL: 7% for the first, 52% for the second.

Going from `CO/C=C(/C(=O)OC)c1ccccc1CSc1cc(=O)c2ccccc2s1` to `CO/C=C(/C(=O)OC)c1ccccc1CSc1nnc(-c2ccccc2)n1N`, the inhibition at 50 µg/mL rises from 18% to 41%.

With `CO/C=C(/C(=O)OC)c1ccccc1CSc1nnc(CSc2nc3nc(C)cc(C)n3n2)n1-c1ccccc1` the inhibition at 50 µg/mL was 7%.

test system: Pseudoperonospora cubensis; test: Antifungal activity against Pseudoperonospora cubensis inoculated in inoculated in cucumber plant assessed as preventive fungicidal activity at 100 ug/mL measured after 7 days; format: functional; details: not given

Going from `CO/N=C(/C(=O)OC)c1ccccc1CSc1nc2ccccc2s1` to `CO/C=C(/C(=O)OC)c1ccccc1CSc1nc2ccccc2s1`, the Activity rises from 84% to 100%.

`CO/C=C(/C(=O)OC)c1ccccc1CSc1nc(C)cc(C)n1` showed an Activity of 0%.

test system: Colletotrichum gossypii; test: Antifungal activity against Colletotrichum gossypii assessed as inhibition rate at 50 ug/mL; format: functional; details: not given

Compared with `CO/C=C(/C(=O)OC)c1ccccc1CSc1nc2ccccc2o1`, `CO/C=C(/C(=O)OC)c1ccccc1CSc1nc2ccccc2s1` is higher in inhibition at 50 µg/mL: 83% for the first, 86% for the second.

First: CO/N=C(/C(=O)OC)c1ccccc1CSc1nc2ccccc2s1
Second: CO/N=C(/C(=O)OC)c1ccccc1CSc1cc(=O)c2ccccc2s1
The inhibition at 50 µg/mL of the first is higher: 75% for the first, 48% for the second.

Compared with `CO/N=C(/C(=O)OC)c1ccccc1CSc1nnc(CSc2nc3nc(C)cc(C)n3n2)o1`, `CO/C=C(/C(=O)OC)c1ccccc1CSc1nnc(CSc2nc3nc(C)cc(C)n3n2)s1` is higher in inhibition at 50 µg/mL: 36% for the first, 39% for the second.

Compared with `CO/C=C(/C(=O)OC)c1ccccc1CSc1nc2nc(C)cc(C)n2n1`, `CO/C=C(/C(=O)OC)c1ccccc1CSc1nc(C)cc(C)n1` is higher in inhibition at 50 µg/mL: 39% for the first, 52% for the second.

Compared with `CO/C=C(/C(=O)OC)c1ccccc1CSc1cc(=O)c2ccccc2s1`, `CO/C=C(/C(=O)OC)c1ccccc1CSc1nnc(-c2ccccc2)n1N` is higher in inhibition at 50 µg/mL: 52% for the first, 64% for the second.

`CO/C=C(/C(=O)OC)c1ccccc1CSc1nnc(CSc2nc3nc(C)cc(C)n3n2)n1-c1ccccc1` was tested, and the inhibition at 50 µg/mL was 17%.

test system: Fusarium oxysporum; test: Antifungal activity against Fusarium oxysporum assessed as inhibition rate at 50 ug/mL; format: functional; details: not given

`CO/C=C(/C(=O)OC)c1ccccc1CSc1nc2ccccc2o1` and `CO/C=C(/C(=O)OC)c1ccccc1CSc1nc2ccccc2s1` are the same in inhibition at 50 µg/mL: 69% for the first, 69% for the second.

First: CO/N=C(/C(=O)OC)c1ccccc1CSc1nc2ccccc2s1
Second: CO/N=C(/C(=O)OC)c1ccccc1CSc1cc(=O)c2ccccc2s1
The inhibition at 50 µg/mL of the first is higher: 74% for the first, 44% for the second.

Compared with `CO/N=C(/C(=O)OC)c1ccccc1CSc1nnc(CSc2nc3nc(C)cc(C)n3n2)o1`, `CO/C=C(/C(=O)OC)c1ccccc1CSc1nnc(CSc2nc3nc(C)cc(C)n3n2)s1` is lower in inhibition at 50 µg/mL: 63% for the first, 61% for the second.

Compared with `CO/C=C(/C(=O)OC)c1ccccc1CSc1nc2nc(C)cc(C)n2n1`, `CO/C=C(/C(=O)OC)c1ccccc1CSc1nc(C)cc(C)n1` is higher in inhibition at 50 µg/mL: 61% for the first, 79% for the second.

Compared with `CO/C=C(/C(=O)OC)c1ccccc1CSc1cc(=O)c2ccccc2s1`, `CO/C=C(/C(=O)OC)c1ccccc1CSc1nnc(-c2ccccc2)n1N` is higher in inhibition at 50 µg/mL: 48% for the first, 76% for the second.

`CO/C=C(/C(=O)OC)c1ccccc1CSc1nnc(CSc2nc3nc(C)cc(C)n3n2)n1-c1ccccc1` gave an inhibition at 50 µg/mL of 40%.

test system: Podosphaera fuliginea; test: Antifungal activity against Podosphaera fuliginea inoculated in inoculated in cucumber plant assessed as preventive fungicidal activity at 100 ug/mL measured after 7 days; format: functional; details: not given

`CO/N=C(/C(=O)OC)c1ccccc1CSc1nc2ccccc2s1` and `CO/C=C(/C(=O)OC)c1ccccc1CSc1nc2ccccc2s1` are the same in Activity: 100% for the first, 100% for the second.

In the case of `CO/C=C(/C(=O)OC)c1ccccc1CSc1nc(C)cc(C)n1`, the Activity is reported as 70%.

test system: Podosphaera fuliginea; test: Antifungal activity against Podosphaera fuliginea inoculated in inoculated in cucumber plant assessed as preventive fungicidal activity at 50 ug/mL measured after 7 days; format: functional; details: not given

`CO/N=C(/C(=O)OC)c1ccccc1CSc1nc2ccccc2s1` and `CO/C=C(/C(=O)OC)c1ccccc1CSc1nc2ccccc2s1` are the same in Activity: 100% for the first, 100% for the second.

For `CO/C=C(/C(=O)OC)c1ccccc1CSc1nc(C)cc(C)n1`, the Activity was 40%.

test system: Pseudoperonospora cubensis; test: Antifungal activity against Pseudoperonospora cubensis inoculated in inoculated in cucumber plant assessed as preventive fungicidal activity at 25 ug/mL measured after 7 days; format: functional; details: not given

Compared with `CO/N=C(/C(=O)OC)c1ccccc1CSc1nc2ccccc2s1`, `CO/C=C(/C(=O)OC)c1ccccc1CSc1nc2ccccc2s1` is higher in Activity: 39% for the first, 62% for the second.

test system: Pseudoperonospora cubensis; test: Antifungal activity against Pseudoperonospora cubensis inoculated in inoculated in cucumber plant assessed as preventive fungicidal activity at 50 ug/mL measured after 7 days; format: functional; details: not given

Going from `CO/N=C(/C(=O)OC)c1ccccc1CSc1nc2ccccc2s1` to `CO/C=C(/C(=O)OC)c1ccccc1CSc1nc2ccccc2s1`, the Activity rises from 66% to 94%.

test system: Pseudoperonospora cubensis; test: Antifungal activity against Pseudoperonospora cubensis inoculated in inoculated in cucumber plant assessed as preventive fungicidal activity measured after 7 days; format: functional; details: 168 h

Going from `CO/N=C(/C(=O)OC)c1ccccc1CSc1nc2ccccc2s1` to `CO/C=C(/C(=O)OC)c1ccccc1CSc1nc2ccccc2s1`, the EC90 falls from 150 mg/L (≈ 404 µM) to 46.3 mg/L (≈ 125 µM) (3.2-fold).

test system: Rhizoctonia solani; test: Antifungal activity against Rhizoctonia solani assessed as inhibition rate at 50 ug/mL; format: functional; details: not given

Compared with `CO/C=C(/C(=O)OC)c1ccccc1CSc1nc2ccccc2o1`, `CO/C=C(/C(=O)OC)c1ccccc1CSc1nc2ccccc2s1` is higher in inhibition at 50 µg/mL: 78% for the first, 87% for the second.

Going from `CO/N=C(/C(=O)OC)c1ccccc1CSc1nc2ccccc2s1` to `CO/N=C(/C(=O)OC)c1ccccc1CSc1cc(=O)c2ccccc2s1`, the inhibition at 50 µg/mL falls from 82% to 73%.

Going from `CO/N=C(/C(=O)OC)c1ccccc1CSc1nnc(CSc2nc3nc(C)cc(C)n3n2)o1` to `CO/C=C(/C(=O)OC)c1ccccc1CSc1nnc(CSc2nc3nc(C)cc(C)n3n2)s1`, the inhibition at 50 µg/mL falls from 88% to 58%.

First: CO/C=C(/C(=O)OC)c1ccccc1CSc1nc2nc(C)cc(C)n2n1
Second: CO/C=C(/C(=O)OC)c1ccccc1CSc1nc(C)cc(C)n1
The inhibition at 50 µg/mL of the first is lower: 66% for the first, 83% for the second.

First: CO/C=C(/C(=O)OC)c1ccccc1CSc1cc(=O)c2ccccc2s1
Second: CO/C=C(/C(=O)OC)c1ccccc1CSc1nnc(-c2ccccc2)n1N
The inhibition at 50 µg/mL of the first is lower: 64% for the first, 84% for the second.

`CO/C=C(/C(=O)OC)c1ccccc1CSc1nnc(CSc2nc3nc(C)cc(C)n3n2)n1-c1ccccc1` gave an inhibition at 50 µg/mL of 37%.

test system: Podosphaera fuliginea; test: Antifungal activity against Podosphaera fuliginea inoculated in inoculated in cucumber plant assessed as preventive fungicidal activity measured after 7 days; format: functional; details: 168 h

First: CO/N=C(/C(=O)OC)c1ccccc1CSc1nc2ccccc2s1
Second: CO/C=C(/C(=O)OC)c1ccccc1CSc1nc2ccccc2s1
The EC90 of the first is 1.6-fold higher: 9.6 mg/L (≈ 25.8 µM) for the first, 6.17 mg/L (≈ 16.6 µM) for the second.

test system: Fusarium graminearum; test: Antifungal activity against Fusarium graminearum assessed as inhibition rate at 50 ug/mL; format: functional; details: not given

First: CO/C=C(/C(=O)OC)c1ccccc1CSc1nc2ccccc2o1
Second: CO/C=C(/C(=O)OC)c1ccccc1CSc1nc2ccccc2s1
The inhibition at 50 µg/mL of the first is higher: 81% for the first, 74% for the second.

Compared with `CO/N=C(/C(=O)OC)c1ccccc1CSc1nc2ccccc2s1`, `CO/N=C(/C(=O)OC)c1ccccc1CSc1cc(=O)c2ccccc2s1` is lower in inhibition at 50 µg/mL: 81% for the first, 61% for the second.

Compared with `CO/N=C(/C(=O)OC)c1ccccc1CSc1nnc(CSc2nc3nc(C)cc(C)n3n2)o1`, `CO/C=C(/C(=O)OC)c1ccccc1CSc1nnc(CSc2nc3nc(C)cc(C)n3n2)s1` is higher in inhibition at 50 µg/mL: 41% for the first, 44% for the second.

First: CO/C=C(/C(=O)OC)c1ccccc1CSc1nc2nc(C)cc(C)n2n1
Second: CO/C=C(/C(=O)OC)c1ccccc1CSc1nc(C)cc(C)n1
The inhibition at 50 µg/mL of the first is lower: 47% for the first, 74% for the second.

Compared with `CO/C=C(/C(=O)OC)c1ccccc1CSc1cc(=O)c2ccccc2s1`, `CO/C=C(/C(=O)OC)c1ccccc1CSc1nnc(-c2ccccc2)n1N` is higher in inhibition at 50 µg/mL: 53% for the first, 69% for the second.

In the case of `CO/C=C(/C(=O)OC)c1ccccc1CSc1nnc(CSc2nc3nc(C)cc(C)n3n2)n1-c1ccccc1`, the inhibition at 50 µg/mL is reported as 36%.

test system: Dothiorella gregaria; test: Antifungal activity against Dothiorella gregaria assessed as inhibition rate at 50 ug/mL; format: functional; details: not given

First: CO/C=C(/C(=O)OC)c1ccccc1CSc1nc2ccccc2o1
Second: CO/C=C(/C(=O)OC)c1ccccc1CSc1nc2ccccc2s1
The inhibition at 50 µg/mL of the first is lower: 46% for the first, 94% for the second.

Compared with `CO/N=C(/C(=O)OC)c1ccccc1CSc1nc2ccccc2s1`, `CO/N=C(/C(=O)OC)c1ccccc1CSc1cc(=O)c2ccccc2s1` is lower in inhibition at 50 µg/mL: 84% for the first, 19% for the second.

First: CO/N=C(/C(=O)OC)c1ccccc1CSc1nnc(CSc2nc3nc(C)cc(C)n3n2)o1
Second: CO/C=C(/C(=O)OC)c1ccccc1CSc1nnc(CSc2nc3nc(C)cc(C)n3n2)s1
The inhibition at 50 µg/mL of the first is higher: 70% for the first, 69% for the second.

Compared with `CO/C=C(/C(=O)OC)c1ccccc1CSc1nc2nc(C)cc(C)n2n1`, `CO/C=C(/C(=O)OC)c1ccccc1CSc1nc(C)cc(C)n1` is higher in inhibition at 50 µg/mL: 78% for the first, 91% for the second.

First: CO/C=C(/C(=O)OC)c1ccccc1CSc1cc(=O)c2ccccc2s1
Second: CO/C=C(/C(=O)OC)c1ccccc1CSc1nnc(-c2ccccc2)n1N
The inhibition at 50 µg/mL of the first is lower: 14% for the first, 76% for the second.

Work on `CO/C=C(/C(=O)OC)c1ccccc1CSc1nnc(CSc2nc3nc(C)cc(C)n3n2)n1-c1ccccc1` yielded an inhibition at 50 µg/mL of 11%.

test system: Podosphaera fuliginea; test: Antifungal activity against Podosphaera fuliginea inoculated in inoculated in cucumber plant assessed as preventive fungicidal activity at 25 ug/mL measured after 7 days; format: functional; details: not given

Going from `CO/N=C(/C(=O)OC)c1ccccc1CSc1nc2ccccc2s1` to `CO/C=C(/C(=O)OC)c1ccccc1CSc1nc2ccccc2s1`, the Activity rises from 97% to 100%.

Source: ChEMBL document CHEMBL3044809, “Design, synthesis, and fungicidal activities of new strobilurin derivatives” (2007)
